This is an account of results in the NIST ThermoML archive (doi:10.1021/acs.jced.8b01062).

The conditions of series [1]: Crystal; DSC.
Series [2] can be described thus: Molar enthalpy of transition or fusion. To be noted: Crystal; DSC.

Numbers after ± are expanded uncertainties.

With `CC#C[C@]1(O)CC[C@H]2[C@@H]3CCC4=CC(=O)CCC4=C3[C@@H](c3ccc(N(C)C)cc3)C[C@@]21C` [mifepristone], in series [1], the Triple point temperature was 465.45 ± 0.81 K. Moreover, in series [2], the “Molar enthalpy of transition or fusion” value was found to be 4.64 ± 0.21 kcal/mol.
